The text below walks through data of US20060110769A1, “Regulation of novel human prolyl 4-hydroxylases” (Bayer Aktiengesellschaft, priority 2001, published 2006).

This series has as its system human prolyl 4-hydroxylase. In words: Expression of human prolyl 4-hydroxylase by Western blotting in oligonucleotide-treated HCT116 cells. In kind it is cell-based. As to conditions: HCT116, 10 μM once per day for seven days. As to the method:
The cell line used for testing is the human colon cancer cell line HCT116. Cells are cultured in RPMI-1640 with 10-15% fetal calf serum at a concentration of 10,000 cells per milliliter in a volume of 0.5 ml and kept at 37° C. in a 95% air/5% CO2 atmosphere.
Phosphorothioate oligoribonucleotides are synthesized on an Applied Biosystems Model 380B DNA synthesizer using phosphoroamidite chemistry. A sequence of 24 bases complementary to the nucleotides at position 1 to 24 of SEQ ID NO:1 or SEQ ID NO:3 is used as the test oligonucleotide. As a control, another (random) sequence is used: 5′-TCAACTGACTAGATGTACATGGAC-3′ (SEQ ID NO:11). Following assembly and deprotection, oligonucleotides are ethanol-precipitated twice, dried, and suspended in phosphate buffered saline at the desired concentration. Purity of the oligonucleotides is tested by capillary gel electrophoresis and ion exchange HPLC. The purified oligonucleotides are added to the culture medium at a concentration of 10 μM once per day for seven days.
This effect is not observed with the control oligonucleotide. After 3 to 7 days, the number of cells in the cultures is counted using an automatic cell counter. The number of cells in cultures treated with the test oligonucleotide (expressed as 100%) is compared with the number of cells in cultures treated with the control oligonucleotide.
Background: A western blot detects proteins with antibodies after separation by electrophoresis.

Take “5′-TCAACTGACTAGATGTACATGGAC-3′ (TCAACTGACTAGATGTACATGGAC; listed as DNA, chemistry not given here) [control oligonucleotide]”: the “expression of human prolyl 4-hydroxylase as determined by Western blotting” value is recorded as “not observed”.
